Laboratory results published in patent EP1288226A1, “Modification of the expression levels of Toll-like receptor familiy members for influencing neurodegeneration and neuroprotection in the human central nervous system” (NEDERLANDSE ORGANISATIE VOOR …, priority 2001, dated 2003).

Experiments:
Test in all cases: TLR expression in primary human microglia after stimulation, semi-quantitative RT-PCR
Type in all cases: cell-based
Conditions in all cases: aggregated peptide 5 µM, 6 h or 24 h
TLR2 = tested on: TLR2
Protocol: (§1) Primary human microglia, oligodendrocytes and astrocytes used in this study were isolated from the human white matter samples obtained from the patients listed in Table 1, as previously described (Bajramovic et al., 2000a and 2000b; De Groot et al., 2000). Briefly, brain tissues dissected from corpus callosum or subcortical white matter were collected and blood vessels were removed. After a 20-min digestion in 0.25 % (w/v) trypsine (Sigma, St. Louis, MO) and 0.1 mg/ml DNAse (Boehringer Mannheim, Mannheim, Germany) the cell suspension was gently triturated and washed with DMEM/HAM-F10 medium containing 10 % (v/v) FCS and antibiotic supplements. After passage through a 100-µm filter, myelin was removed by Percoll gradient centrifugation. Erythrocytes were lysed by a 15-min incubation on ice with 155 mM NH4Cl, 1 mM KHCO3, 0.2 % (w/v) BSA.
(§2) Primary cultures of microglia, astrocytes and oligodendrocytes were set up in DMEM/HAM-F10 medium containing 10 % (v/v) FCS and antibiotic supplements. Recombinant human granulocyte-macrophage colony stimulating factor (rhGM-CSF, PeproTech Inc, USA) was added to microglial cultures every 3 days at a final concentration of […]. Cells were analyzed for TLR expression after 10-14 days following the start of the culture.
(§3) Total cellular RNA was isolated from human glia cells using RNAZol™B (Campro scientific, Veenendaal, The Netherlands) and 2.5 µg RNA was reverse transcribed, using reverse transcription system (Promega, Madison, USA). PCR amplifications were performed on 1 µl copy DNA and 49 µl PCR mix (40 µl milliQ + 5 µl MgCl2 (see below for concentration) + 1 µl 10 mM dNTP mix + 1 µl 20 pmol/µl primer + 1 µl 20 pmol/µl anti sense primer and 0.2 µl taq polymerase). For β-actin, TLR1, TLR2, TLR3, TLR5, TLR6, TLR7 and TLR 9, 22 mM MgCl2 was used, for TLR4, 15 mM MgCl2 and for TLR8, 30 mM MgCl2. Amounts of TLR-encoding mRNA for each TLR were calculated by comparing the yield of each amplicon after 40 cycles to that for β-actin, and by determining the amounts of β-actin encoding mRNA in each sample by competitive quantitative RT-PCR as described previously (Bajramovic et al., 2000a; Bajramovic et al., 2000b).
(§4) Amyloid-β-protein-derived peptide 1-42 (Bachem, Bubendorf, Switzerland) was dissolved in water at 1 mM and kept at 37°C for 1 week to allow for aggregation to occur. The aggregated peptide was added to cultured microglia at a final concentration of 5 µM and TLR expression was determined as described above after varying periods of incubation time. As another CNS-derived stimulant, human recombinant alpha B-crystallin (prepared by TNO Prevention and Health, Leiden) was used at a final concentration of 15 µg/mL.

TLR3 = tested on: TLR3
Protocol: as §1, §2, §3, §4

other TLR = tested on: other TLR
Protocol: as §1, §2, §3, §4

[1] = listed as Amyloid β protein-derived peptide 1-42
[2] = listed as amyloid β-protein derived peptide 1-42

With “amyloid β protein-derived peptide 1-42: Amyloid-β-protein-derived peptide 1-42 (Bachem), dissolved in water at 1 mM and kept at 37°C for 1 week to allow aggregation” the “levels of TLR2-encoding mRNA” value (TLR2) was “rapid mild inductive effect”, the “levels of TLR2-encoding mRNA” value (TLR2; [1]) was “elevated expression” and the “levels of TLR2-encoding mRNA” value (TLR2; [2]) was “strong effects”. For the same substance, the “levels of TLR3-encoding mRNA” value (TLR3) was “stronger inductive effects”, the “levels of TLR3-encoding mRNA” value (TLR3; [1]) was “elevated expression” and the “levels of TLR3-encoding mRNA” value (TLR3; [2]) was “strong effects”. The “expression of mRNA encoding other TLR” value (other TLR) was “not influenced” and the “expression of mRNA encoding other TLR” value (other TLR; [1]) was “not affecting”.
